Measured values taken from the supplement of paper PMC10307832.

How the values were obtained:
Experiment in all cases: relative viability (nuclei count vs DMSO), 5 days (fraction); higher = more cells survive
LXF-289 = system: LXF-289
In short: (§1)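 Relative viability is defined as nuclei in treated wells over nuclei in vehicle wells. Duplicate plates were run and medians reported. Lung cancer cell lines in 1536-well plates were dosed by pin tool one day after seeding, with one drug or with a fixed anchor-drug dose plus five library-drug doses (not always all listed) in √10 steps, and nuclei were counted after 5 days.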

EKVX = system: EKVX
In short: as §1

NCI-H1915 = system: NCI-H1915
In short: as §1

BEN = system: BEN
In short: as §1

NCI-H460 = system: NCI-H460
In short: as §1

NCI-H1651 = system: NCI-H1651
In short: as §1

EPLC-272H = system: EPLC-272H
In short: as §1

NCI-H2347 = system: NCI-H2347
In short: as §1

NCI-H358 = system: NCI-H358
In short: as §1

A-427 = system: A-427
In short: as §1

SW 900 = system: SW 900
In short: as §1

EMC-BAC-2 = system: EMC-BAC-2
In short: as §1

NCI-H1793 = system: NCI-H1793
In short: as §1

HCC-44 = system: HCC-44
In short: as §1

LK-2 = system: LK-2
In short: as §1

NCI-H2087 = system: NCI-H2087
In short: as §1

## COCC1(CO)C(=O)C2CCN1CC2 (centres undefined) [PRIMA-1MET] + NC(=O)Nc1cc(-c2cccc(F)c2)sc1C(=O)N[C@H]1CCCNC1 [AZD7762] (partner 0.2 µM)
LXF-289; first compound 0.2 µM
  relative viability: 1.15
LXF-289; first compound 0.6325 µM
  relative viability: 1.07
LXF-289; first compound 2 µM
  relative viability: 1.13
LXF-289; first compound 6.325 µM
  relative viability: 1.12
LXF-289; first compound 20 µM
  relative viability: 1.01
EKVX; first compound 0.2 µM
  relative viability: 0.72
EKVX; first compound 2 µM
  relative viability: 0.524
EKVX; first compound 6.325 µM
  relative viability: 0.748
EKVX; first compound 20 µM
  relative viability: 0.378
NCI-H1915; first compound 0.2 µM
  relative viability: 0.745
NCI-H1915; first compound 0.6325 µM
  relative viability: 0.507
NCI-H1915; first compound 2 µM
  relative viability: 0.517
NCI-H1915; first compound 6.325 µM
  relative viability: 0.82
NCI-H1915; first compound 20 µM
  relative viability: 0.657
BEN; first compound 0.2 µM
  relative viability: 0.733
BEN; first compound 0.6325 µM
  relative viability: 0.603
BEN; first compound 6.325 µM
  relative viability: 0.653
BEN; first compound 20 µM
  relative viability: 0.652
NCI-H460; first compound 0.2 µM
  relative viability: 0.705
NCI-H460; first compound 0.6325 µM
  relative viability: 0.382
NCI-H460; first compound 2 µM
  relative viability: 0.659
NCI-H460; first compound 6.325 µM
  relative viability: 0.703
NCI-H460; first compound 20 µM
  relative viability: 0.251
NCI-H1651; first compound 0.2 µM
  relative viability: 0.442
NCI-H1651; first compound 0.6325 µM
  relative viability: 0.443
NCI-H1651; first compound 2 µM
  relative viability: 0.478
NCI-H1651; first compound 6.325 µM
  relative viability: 0.513
NCI-H1651; first compound 20 µM
  relative viability: 0.592
EPLC-272H; first compound 0.2 µM
  relative viability: 0.236
EPLC-272H; first compound 0.6325 µM
  relative viability: 0.123
EPLC-272H; first compound 2 µM
  relative viability: 0.178
EPLC-272H; first compound 6.325 µM
  relative viability: 0.262
EPLC-272H; first compound 20 µM
  relative viability: 0.147
NCI-H2347; first compound 0.2 µM
  relative viability: 0.709
NCI-H2347; first compound 0.6325 µM
  relative viability: 0.668
NCI-H2347; first compound 2 µM
  relative viability: 0.569
NCI-H2347; first compound 6.325 µM
  relative viability: 0.761
NCI-H2347; first compound 20 µM
  relative viability: 0.525
NCI-H358; first compound 0.2 µM
  relative viability: 0.592
NCI-H358; first compound 2 µM
  relative viability: 0.489
NCI-H358; first compound 6.325 µM
  relative viability: 0.484
NCI-H358; first compound 20 µM
  relative viability: 0.0265
A-427; first compound 0.2 µM
  relative viability: 0.741
A-427; first compound 0.6325 µM
  relative viability: 0.795
A-427; first compound 2 µM
  relative viability: 0.756
A-427; first compound 6.325 µM
  relative viability: 0.711
A-427; first compound 20 µM
  relative viability: 0.557
SW 900; first compound 0.2 µM
  relative viability: 0.553
SW 900; first compound 0.6325 µM
  relative viability: 0.632
SW 900; first compound 6.325 µM
  relative viability: 0.573
SW 900; first compound 20 µM
  relative viability: 0.101
EMC-BAC-2; first compound 0.2 µM
  relative viability: 1.34
EMC-BAC-2; first compound 0.6325 µM
  relative viability: 1.07
EMC-BAC-2; first compound 2 µM
  relative viability: 0.989
EMC-BAC-2; first compound 6.325 µM
  relative viability: 1.12
EMC-BAC-2; first compound 20 µM
  relative viability: 1.01
NCI-H1793; first compound 0.2 µM
  relative viability: 0.408
NCI-H1793; first compound 0.6325 µM
  relative viability: 0.651
NCI-H1793; first compound 6.325 µM
  relative viability: 0.685
NCI-H1793; first compound 20 µM
  relative viability: 0.382
HCC-44; first compound 0.2 µM
  relative viability: 1.02
HCC-44; first compound 0.6325 µM
  relative viability: 1.01
HCC-44; first compound 2 µM
  relative viability: 1.18
HCC-44; first compound 6.325 µM
  relative viability: 1.03
HCC-44; first compound 20 µM
  relative viability: 1.01
LK-2; first compound 0.2 µM
  relative viability: 0.469
LK-2; first compound 0.6325 µM
  relative viability: 0.405
LK-2; first compound 2 µM
  relative viability: 0.182
LK-2; first compound 6.325 µM
  relative viability: 0.124
LK-2; first compound 20 µM
  relative viability: 0.0604
NCI-H2087; first compound 0.6325 µM
  relative viability: 1.35
NCI-H2087; first compound 2 µM
  relative viability: 1.29
NCI-H2087; first compound 6.325 µM
  relative viability: 1.25
NCI-H2087; first compound 20 µM
  relative viability: 0.938
